Source: the supplement of paper PMC8960247
Where a name gives a salt, the structure may show the parent alone. ± gives the standard error.

tested on: 621-103 (TSC2-rescued); assay: relative viability vs DMSO; higher = less cytotoxic; conditions: 0.001 µM; serum: 10% FBS; 72 h
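Note: immortalized renal angiomyolipoma cells stably carrying empty vector or TSC2, dosed in 384-well plates in DMEM, viability normalized to vehicle-treated wells within each plate.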

Structure (SMILES) | relative viability
CC(=O)O[C@H]1CC[C@@]2(C)C(=CC[C@@H]3[C@@H]2CC[C@]2(C)C(c4cccnc4)=CC[C@@H]32)C1 [Abiraterone Acetate (CB7630)] | 104 ± 3.1%
CC(=O)Nc1ccccc1 [Acetanilide] | 102 ± 4.6%
Nc1[nH]cnc2ncnc1-2 [Adenine HCl] | 96.77 ± 0.35%
Nc1[nH]cnc2ncnc1-2 [Adenine] | 98.5 ± 4.1%
COc1cccc2c1C(=O)c1c(O)c3c(c(O)c1C2=O)C[C@@](O)(C(=O)CO)C[C@@H]3O[C@H]1C[C@H](N)[C@H](O)[C@H](C)O1 [Adriamycin] | 103 ± 1.9%
NCCCC(O)(P(=O)(O)O)P(=O)(O)O [Alendronate Sodium] | 102 ± 1.5%
COCCCOc1cc(C[C@@H](C[C@H](N)[C@@H](O)C[C@H](C(=O)NCC(C)(C)C(N)=O)C(C)C)C(C)C)ccc1OC [Aliskiren hemifumarate] | 100 ± 1.1%
O=C1c2ccccc2C(=O)c2c1ccc(O)c2O [Alizarin] | 102 ± 5%
Oc1ncnc2[nH]ncc12 [Allopurinol] | 98.4 ± 1.6%
NC12CC3CC(CC(C3)C1)C2 [Amantadine HCl (Symmetrel)] | 98.7 ± 2.9%
CC(NC(C)(C)C)C(=O)c1cccc(Cl)c1 (centres undefined) [Amfebutamone] | 105 ± 2.2%
CCN1CCCC1CNC(=O)c1cc(S(=O)(=O)CC)c(N)cc1OC (centres undefined) [Amisulpride] | 105 ± 2.5%
CCOC(=O)C1=C(COCCN)NC(C)=C(C(=O)OC)C1c1ccccc1Cl (centres undefined) [Amlodipine besylate] | 91.1 ± 4.7%
CC(C)(C#N)c1cc(Cn2cncn2)cc(C(C)(C)C#N)c1 [Anastrozole (Arimidex)] | 104 ± 3.2%
N#CC1(c2ccc(NC(=O)c3cccnc3NCc3ccncc3)cc2)CCCC1 [Apatinib] | 103 ± 3.9%
O=c1cc(-c2ccc(O)cc2)oc2cc(O)cc(O)c12 [Apigenin] | 128 ± 1.4%
COc1ccc(-n2nc(C(N)=O)c3c2C(=O)N(c2ccc(N4CCCCC4=O)cc2)CC3)cc1 [Apixaban] | 116.3 ± 0.34%
COc1cc(OC)c(OC)cc1C=O [Asaraldehyde] | 103 ± 2%
CN1CC2c3ccccc3Oc3ccc(Cl)cc3C2C1 (centres undefined) [Asenapine maleate] | 113 ± 3.3%
CN1[C@@H]2CC[C@H]1C[C@@H](OC(=O)C(CO)c1ccccc1)C2 (some centres undefined) [Atropine sulfate monohydrate] | 92.1 ± 8.5%

same assay, conditions: 0.01 µM; serum: 10% FBS; 72 h

Structure (SMILES) | relative viability
CC1(C)CCC(c2ccc(Cl)cc2)=C(CN2CCN(c3ccc(C(=O)NS(=O)(=O)c4ccc(N[C@H](CCN5CCOCC5)CSc5ccccc5)c(S(=O)(=O)C(F)(F)F)c4)cc3)CC2)C1 [ABT-263 (Navitoclax)] | 98 ± 1.2%
COc1ccc(S(=O)(=O)Nc2cccnc2Nc2ccc(O)cc2)cc1 [ABT-751] | 105 ± 3.2%
Cc1ccc(F)c(NC(=O)Nc2ccc(-c3cccc4[nH]nc(N)c34)cc2)c1 [ABT-869] | 108 ± 6.2%
C[C@]1(c2nc3c(C(N)=O)cccc3[nH]2)CCCN1 [ABT-888] | 104 ± 0.11%
CC(C)(C)c1cc(NC(=O)Nc2ccc(-c3cn4c(n3)sc3cc(OCCN5CCOCC5)ccc34)cc2)no1 [AC-220] | 99.4 ± 2.7%
N#C/C(=C\c1ccc(O)c(O)c1)C(=O)NCc1ccccc1 [AG-490] | 108 ± 2%
Cc1csc(-c2nnc(Nc3ccc(Oc4ncccc4-c4ccnc(N)n4)cc3)c3ccccc23)c1 [AMG900] | 71.5 ± 4.7%
CC(C)[C@H](C(=O)Nc1ccc(C(=O)NO)cc1)c1ccccc1 [AR-42 (HDAC-42)] | 102 ± 6.3%
Clc1ccc(C2(c3ccc(-c4cn[nH]c4)cc3)CCNCC2)cc1 [AT7867] | 90.2 ± 4.9%
COc1cc2nccc(Oc3ccc(NC(=O)Nc4cc(C)on4)c(Cl)c3)c2cc1OC [AV-951(Tivozanib)] | 102.2 ± 0.42%
Cc1cc(Nc2nc(N[C@@H](C)c3ccc(F)cc3)c(C#N)cc2F)n[nH]1 [AZ 960] | 94.7 ± 2.2%
CCN(CCO)CCCOc1ccc2c(Nc3cc(CC(=O)Nc4cccc(F)c4)[nH]n3)ncnc2c1 [AZD1152-HQPA (Barasertib)] | 96.9 ± 0.98%
Cc1cc(Nc2nc(N[C@@H](C)c3ncc(F)cn3)ncc2Cl)[nH]n1 [AZD1480] | 86.7 ± 3.9%
O=C(c1cc(Cc2n[nH]c(=O)c3ccccc23)ccc1F)N1CCN(C(=O)C2CC2)CC1 [AZD2281 (Olaparib)] | 104.6 ± 0.91%
Cc1ncc(-c2ccnc(Nc3ccc(S(C)(=O)=O)cc3)n2)n1C(C)C [AZD5438] | 98.7 ± 4.7%
Cn1cnc2c(F)c(Nc3ccc(Br)cc3Cl)c(C(=O)NOCCO)cc21 [AZD6244 (Selumetinib)] | 105.2 ± 1%
COc1ccc(-c2ccc3c(N4CCOC[C@@H]4C)nc(N4CCOC[C@@H]4C)nc3n2)cc1CO [AZD8055] | 69 ± 0.95%
Cc1cc(C(=O)NOCCO)c(Nc2ccc(I)cc2F)n(C)c1=O [AZD8330] | 93.3 ± 1.4%
CNC(=O)CN1CCC(Oc2cc3c(Nc4cccc(Cl)c4F)ncnc3cc2OC)CC1 [AZD8931] | 101 ± 2.6%
CC(=O)O[C@H]1CC[C@@]2(C)C(=CC[C@@H]3[C@@H]2CC[C@]2(C)C(c4cccnc4)=CC[C@@H]32)C1 [Abiraterone Acetate (CB7630)] | 111 ± 2.3%

Structure (SMILES) | relative viability
CC(=O)Nc1ccccc1 [Acetanilide] | 106.2 ± 0.32%
Nc1[nH]cnc2ncnc1-2 [Adenine HCl] | 92.9 ± 4.8%
Nc1[nH]cnc2ncnc1-2 [Adenine] | 101 ± 1.6%
COc1cccc2c1C(=O)c1c(O)c3c(c(O)c1C2=O)C[C@@](O)(C(=O)CO)C[C@@H]3O[C@H]1C[C@H](N)[C@H](O)[C@H](C)O1 [Adriamycin] | 87.9 ± 3.1%
NCCCC(O)(P(=O)(O)O)P(=O)(O)O [Alendronate Sodium] | 101 ± 4.5%
COCCCOc1cc(C[C@@H](C[C@H](N)[C@@H](O)C[C@H](C(=O)NCC(C)(C)C(N)=O)C(C)C)C(C)C)ccc1OC [Aliskiren hemifumarate] | 104 ± 6.3%
O=C1c2ccccc2C(=O)c2c1ccc(O)c2O [Alizarin] | 101.4 ± 0.27%
Oc1ncnc2[nH]ncc12 [Allopurinol] | 101 ± 3.5%
NC12CC3CC(CC(C3)C1)C2 [Amantadine HCl (Symmetrel)] | 106 ± 2.3%
CC(NC(C)(C)C)C(=O)c1cccc(Cl)c1 (centres undefined) [Amfebutamone] | 98.8 ± 1.9%
CCN1CCCC1CNC(=O)c1cc(S(=O)(=O)CC)c(N)cc1OC (centres undefined) [Amisulpride] | 110.7 ± 0.99%
CCOC(=O)C1=C(COCCN)NC(C)=C(C(=O)OC)C1c1ccccc1Cl (centres undefined) [Amlodipine besylate] | 99.4 ± 2.6%
CC(C)(C#N)c1cc(Cn2cncn2)cc(C(C)(C)C#N)c1 [Anastrozole (Arimidex)] | 101 ± 1.7%
N#CC1(c2ccc(NC(=O)c3cccnc3NCc3ccncc3)cc2)CCCC1 [Apatinib] | 110 ± 2.4%
O=c1cc(-c2ccc(O)cc2)oc2cc(O)cc(O)c12 [Apigenin] | 108.9 ± 0.2%
COc1ccc(-n2nc(C(N)=O)c3c2C(=O)N(c2ccc(N4CCCCC4=O)cc2)CC3)cc1 [Apixaban] | 115 ± 1.5%
COc1cc(OC)c(OC)cc1C=O [Asaraldehyde] | 94.8 ± 1.3%
CN1CC2c3ccccc3Oc3ccc(Cl)cc3C2C1 (centres undefined) [Asenapine maleate] | 110.6 ± 0.71%
CN1[C@@H]2CC[C@H]1C[C@@H](OC(=O)C(CO)c1ccccc1)C2 (some centres undefined) [Atropine sulfate monohydrate] | 105 ± 6.5%
